In patent publication US6358885B1, “Substituted phenylheterocyclic herbicides” (Mississippi State University, priority 1992, dated 2002):

Columns and labels:
chickweed = test: Test B preemergence/postemergence greenhouse plant response rating 0 to 10; assay type: in vivo, Stellaria media; details: 0 to 10 scale
Method in brief: (§1)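 Postemergence treatment of plants two to eighteen cm tall ran alongside preemergence treatment of planted seed, each using compound in a non-phytotoxic solvent.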

morningglory [1] = test: Test C preemergence/postemergence greenhouse plant response rating 0 to 100; assay type: in vivo, Ipomoea hederacea; details: POSTEMERGENCE; for Plant response rating, Morningglory: 0 to 100 scale
Method in brief: (§2)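 Compounds in non-phytotoxic solvent applied preemergence to sandy loam one day after planting, postemergence at the 1–4 leaf stage, or to ~2.5 cm floodwater over silt loam.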

corn [2] = test: Test B preemergence/postemergence greenhouse plant response rating 0 to 10; assay type: in vivo, Zea mays; details: 0 to 10 scale
Method in brief: as §1

lambsquarters = test: Test C preemergence/postemergence greenhouse plant response rating 0 to 100; assay type: in vivo, Chenopodium album; details: POSTEMERGENCE; for Plant response rating Lambsquarters: 0 to 100 scale
Method in brief: as §2

velvetleaf [3] = test: as above; assay type: in vivo, Abutilon theophrasti; details: POSTEMERGENCE; for Plant response rating, Velvetleaf: 0 to 100 scale
Method in brief: as §2

crabgrass = test: as above; assay type: in vivo, Digitaria sanguinalis; details: POSTEMERGENCE; for Plant response rating, Crabgrass: 0 to 100 scale
Method in brief: as §2

morningglory [4] = test: Test B preemergence/postemergence greenhouse plant response rating 0 to 10; assay type: in vivo, Ipomoea hederacea; details: 0 to 10 scale
Method in brief: as §1

soybean = test: as above; assay type: in vivo, Glycine max; details: 0 to 10 scale
Method in brief: as §1

corn [5] = test: Test C preemergence/postemergence greenhouse plant response rating 0 to 100; assay type: in vivo, Zea mays; details: POSTEMERGENCE; for Plant response rating, Corn: 0 to 100 scale
Method in brief: as §2

wheat = test: as above; assay type: in vivo, Triticum aestivum; details: POSTEMERGENCE; for Plant response rating, Wheat: 0 to 100 scale
Method in brief: as §2

velvetleaf [6] = test: Test B preemergence/postemergence greenhouse plant response rating 0 to 10; assay type: in vivo, Abutilon theophrasti; details: 0 to 10 scale
Method in brief: as §1

sugar beet = test: as above; assay type: in vivo, Beta vulgaris; details: 0 to 10 scale
Method in brief: as §1

CC(C)OC(=O)c1cc(-c2nn3c(c2Cl)CCCC3)c(F)cc1Cl [Compound 44]
Plant response rating, Chickweed (chickweed; POSTEMERGENCE, Rate 200 g/ha): 10 | Plant response rating, Chickweed (chickweed; PREEMERGENCE, Rate 50 g/ha): 9 | Plant response rating, Chickweed (chickweed; Rate 200 g/ha, PREEMERGENCE): 9 | Plant response rating, Morningglory (morningglory [1]; 62 g/ha): 95 | Plant response rating, Morningglory (morningglory [1]; 250 g/ha): 100 | Plant response rating (0 to 100), Morningglory (morningglory [1]; Rate 4 g/ha): 50 | Plant response rating (0 to 100), Morningglory (morningglory [1]; Rate 16 g/ha): 70 | Plant response rating, Corn (corn [2]; POSTEMERGENCE, Rate 50 g/ha): 4 | Plant response rating, Corn (corn [2]; POSTEMERGENCE, Rate 200 g/ha): 6 | Plant response rating, Corn (corn [2]; PREEMERGENCE, Rate 50 g/ha): 2 | Plant response rating, Corn (corn [2]; Rate 200 g/ha, PREEMERGENCE): 3 | Plant response rating Lambsquarters (lambsquarters; 62 g/ha): 100 | Plant response rating Lambsquarters (lambsquarters; 250 g/ha): 100 | Plant response rating (0 to 100), Lambsquarters (lambsquarters; Rate 4 g/ha): 90 | Plant response rating (0 to 100), Lambsquarters (lambsquarters; Rate 16 g/ha): 100 | Plant response rating, Velvetleaf (velvetleaf [3]; 62 g/ha): 100 | Plant response rating, Velvetleaf (velvetleaf [3]; 250 g/ha): 100 | Plant response rating (0 to 100), Velvetleaf (velvetleaf [3]; Rate 4 g/ha): 80 | Plant response rating (0 to 100), Velvetleaf (velvetleaf [3]; Rate 16 g/ha): 90 | Plant response rating, Crabgrass (crabgrass; 62 g/ha): 40 | Plant response rating, Crabgrass (crabgrass; 250 g/ha): 50 | Plant response rating (0 to 100), Crabgrass (crabgrass; Rate 4 g/ha): 20 | Plant response rating (0 to 100), Crabgrass (crabgrass; Rate 16 g/ha): 30 | Plant response rating, Morningglory (morningglory [4]; POSTEMERGENCE, Rate 50 g/ha): 9 | Plant response rating, Morningglory (morningglory [4]; PREEMERGENCE, Rate 50 g/ha): 7 | Plant response rating, Morningglory (morningglory [4]; Rate 200 g/ha, POSTEMERGENCE): 10 | Plant response rating, Morningglory (morningglory [4]; Rate 200 g/ha, PREEMERGENCE): 10 | Plant response rating, Soybean (soybean; POSTEMERGENCE, Rate 50 g/ha): 8 | Plant response rating, Soybean (soybean; PREEMERGENCE, Rate 50 g/ha): 0 | Plant response rating, Soybean (soybean; Rate 200 g/ha, POSTEMERGENCE): 8 | Plant response rating, Soybean (soybean; Rate 200 g/ha, PREEMERGENCE): 3 | Plant response rating, Corn (corn [5]; 62 g/ha): 50 | Plant response rating, Corn (corn [5]; 250 g/ha): 90 | Plant response rating (0 to 100), Corn (corn [5]; Rate 4 g/ha): 30 | Plant response rating (0 to 100), Corn (corn [5]; Rate 16 g/ha): 40 | Plant response rating, Wheat (wheat; 62 g/ha): 50 | Plant response rating, Wheat (wheat; 250 g/ha): 80 | Plant response rating (0 to 100), Wheat (wheat; Rate 4 g/ha): 20 | Plant response rating (0 to 100), Wheat (wheat; Rate 16 g/ha): 30 | Plant response rating, Velvetleaf (velvetleaf [6]; POSTEMERGENCE, Rate 50 g/ha): 9 | Plant response rating, Velvetleaf (velvetleaf [6]; PREEMERGENCE, Rate 50 g/ha): 4 | Plant response rating, Velvetleaf (velvetleaf [6]; Rate 200 g/ha, POSTEMERGENCE): 10 | Plant response rating, Velvetleaf (velvetleaf [6]; Rate 200 g/ha, PREEMERGENCE): 8 | Plant response rating, Sugar beet (sugar beet; POSTEMERGENCE, Rate 50 g/ha): 10 | Plant response rating, Sugar beet (sugar beet; PREEMERGENCE, Rate 50 g/ha): 10 | Plant response rating, Sugar beet (sugar beet; Rate 200 g/ha, POSTEMERGENCE): 10 | Plant response rating, Sugar beet (sugar beet; Rate 200 g/ha, PREEMERGENCE): 10

CCC(C)Oc1cc(-c2nn3c(c2Cl)CCCC3)c(F)cc1Cl (stereo not shown) [Compound 48]
Plant response rating, Chickweed (chickweed; POSTEMERGENCE, Rate 50 g/ha): 9 | Plant response rating, Chickweed (chickweed; POSTEMERGENCE, Rate 200 g/ha): 8 | Plant response rating, Chickweed (chickweed; Rate 200 g/ha, PREEMERGENCE): 4 | Plant response rating, Morningglory (morningglory [1]; 62 g/ha): 60 | Plant response rating, Morningglory (morningglory [1]; 250 g/ha): 95 | Plant response rating (0 to 100), Morningglory (morningglory [1]; Rate 4 g/ha): 30 | Plant response rating (0 to 100), Morningglory (morningglory [1]; Rate 16 g/ha): 50 | Plant response rating, Corn (corn [2]; POSTEMERGENCE, Rate 50 g/ha): 3 | Plant response rating, Corn (corn [2]; POSTEMERGENCE, Rate 200 g/ha): 3 | Plant response rating, Corn (corn [2]; PREEMERGENCE, Rate 50 g/ha): 0 | Plant response rating, Corn (corn [2]; Rate 200 g/ha, PREEMERGENCE): 1 | Plant response rating Lambsquarters (lambsquarters; 62 g/ha): 100 | Plant response rating Lambsquarters (lambsquarters; 250 g/ha): 100 | Plant response rating (0 to 100), Lambsquarters (lambsquarters; Rate 4 g/ha): 60 | Plant response rating (0 to 100), Lambsquarters (lambsquarters; Rate 16 g/ha): 60 | Plant response rating, Velvetleaf (velvetleaf [3]; 62 g/ha): 90 | Plant response rating, Velvetleaf (velvetleaf [3]; 250 g/ha): 90 | Plant response rating (0 to 100), Velvetleaf (velvetleaf [3]; Rate 4 g/ha): 30 | Plant response rating (0 to 100), Velvetleaf (velvetleaf [3]; Rate 16 g/ha): 80 | Plant response rating, Crabgrass (crabgrass; 62 g/ha): 30 | Plant response rating, Crabgrass (crabgrass; 250 g/ha): 40 | Plant response rating (0 to 100), Crabgrass (crabgrass; Rate 4 g/ha): 10 | Plant response rating (0 to 100), Crabgrass (crabgrass; Rate 16 g/ha): 20 | Plant response rating, Morningglory (morningglory [4]; POSTEMERGENCE, Rate 50 g/ha): 10 | Plant response rating, Morningglory (morningglory [4]; PREEMERGENCE, Rate 50 g/ha): 1 | Plant response rating, Morningglory (morningglory [4]; Rate 200 g/ha, POSTEMERGENCE): 10 | Plant response rating, Morningglory (morningglory [4]; Rate 200 g/ha, PREEMERGENCE): 3 | Plant response rating, Soybean (soybean; POSTEMERGENCE, Rate 50 g/ha): 7 | Plant response rating, Soybean (soybean; PREEMERGENCE, Rate 50 g/ha): 0 | Plant response rating, Soybean (soybean; Rate 200 g/ha, POSTEMERGENCE): 7 | Plant response rating, Soybean (soybean; Rate 200 g/ha, PREEMERGENCE): 0 | Plant response rating, Corn (corn [5]; 62 g/ha): 40 | Plant response rating, Corn (corn [5]; 250 g/ha): 50 | Plant response rating (0 to 100), Corn (corn [5]; Rate 4 g/ha): 10 | Plant response rating (0 to 100), Corn (corn [5]; Rate 16 g/ha): 30 | Plant response rating, Wheat (wheat; 62 g/ha): 30 | Plant response rating, Wheat (wheat; 250 g/ha): 50 | Plant response rating (0 to 100), Wheat (wheat; Rate 4 g/ha): 10 | Plant response rating (0 to 100), Wheat (wheat; Rate 16 g/ha): 20 | Plant response rating, Velvetleaf (velvetleaf [6]; POSTEMERGENCE, Rate 50 g/ha): 9 | Plant response rating, Velvetleaf (velvetleaf [6]; PREEMERGENCE, Rate 50 g/ha): 0 | Plant response rating, Velvetleaf (velvetleaf [6]; Rate 200 g/ha, POSTEMERGENCE): 10 | Plant response rating, Velvetleaf (velvetleaf [6]; Rate 200 g/ha, PREEMERGENCE): 4 | Plant response rating, Sugar beet (sugar beet; POSTEMERGENCE, Rate 50 g/ha): 10 | Plant response rating, Sugar beet (sugar beet; PREEMERGENCE, Rate 50 g/ha): 9 | Plant response rating, Sugar beet (sugar beet; Rate 200 g/ha, POSTEMERGENCE): 10 | Plant response rating, Sugar beet (sugar beet; Rate 200 g/ha, PREEMERGENCE): 10
